In ChEMBL document CHEMBL1158340, “Organoiodine (III)-mediated synthesis of 3-aryl/heteroaryl-5,7-dimethyl-1,2,4-triazolo[4,3-c]pyrimidines as antibacterial agents” (2009) one finds zone of inhibition and MIC data, which are given here for three compounds.

Assay type in all cases: functional
Experiment [1] has as its system Bacillus subtilis. As to the kind of experiment: Antibacterial activity against Bacillus subtilis MTCC 8509 at 10 ug/mL by agar well diffusion method. The settings on record: read-out: DIZ. (A growth-free zone around the sample is the usual read-out of agar diffusion tests.)
For experiment [2], the system named is Bacillus subtilis. As to the kind of experiment: Antibacterial activity against Bacillus subtilis MTCC 8509 at 50 ug/mL by agar well diffusion method. Conditions: read-out: DIZ.
Experiment [3] has as its system Bacillus subtilis. As to the kind of experiment: Antibacterial activity against Bacillus subtilis MTCC 8509 at 100 ug/mL by agar well diffusion method. Conditions: read-out: DIZ.
In experiment [4] the test system is Geobacillus stearothermophilus. As to the kind of experiment: Antibacterial activity against Bacillus stearothermophilus MTCC 8508 at 10 ug/mL by agar well diffusion method. The settings on record: read-out: DIZ.
The subject of experiment [5] is Geobacillus stearothermophilus. Put plainly: Antibacterial activity against Bacillus stearothermophilus MTCC 8508 at 50 ug/mL by agar well diffusion method. The settings on record: read-out: DIZ.
Experiment [6] has as its system Geobacillus stearothermophilus. Put plainly: Antibacterial activity against Bacillus stearothermophilus MTCC 8508 at 100 ug/mL by agar well diffusion method. The settings on record: read-out: DIZ.
The test system of experiment [7] is Escherichia coli. Put plainly: Antibacterial activity against Escherichia coli MTCC 51 at 10 ug/mL by agar well diffusion method. The settings on record: read-out: DIZ.
In experiment [8] the test system is Escherichia coli. Put plainly: Antibacterial activity against Escherichia coli MTCC 51 at 50 ug/mL by agar well diffusion method. The settings on record: read-out: DIZ.
In experiment [9] the test system is Escherichia coli. Put plainly: Antibacterial activity against Escherichia coli MTCC 51 at 100 ug/mL by agar well diffusion method. Conditions: read-out: DIZ.
Experiment [10] has as its system Pseudomonas putida. As to the kind of experiment: Antibacterial activity against Pseudomonas putida MTCC 121 at 10 ug/mL by agar well diffusion method. Conditions: read-out: DIZ.
The test system of experiment [11] is Pseudomonas putida. As to the kind of experiment: Antibacterial activity against Pseudomonas putida MTCC 121 at 50 ug/mL by agar well diffusion method. Conditions: read-out: DIZ.
Experiment [12] has as its system Pseudomonas putida. As to the kind of experiment: Antibacterial activity against Pseudomonas putida MTCC 121 at 100 ug/mL by agar well diffusion method. The settings on record: read-out: DIZ.
Experiment [13] concerns Bacillus subtilis. As to the kind of experiment: Antibacterial activity against Bacillus subtilis MTCC 8509 after 24 hrs. The settings on record: MTCC 8509, 24 h.
Experiment [14] concerns Geobacillus stearothermophilus. Put plainly: Antibacterial activity against Bacillus stearothermophilus MTCC 8508 after 24 hrs. Conditions: MTCC 8508, 24 h.
Experiment [15] deals with Escherichia coli. Put plainly: Antibacterial activity against Escherichia coli MTCC 51 after 24 hrs. The settings on record: MTCC 51, 24 h.
Experiment [16] has as its system Pseudomonas putida. As to the kind of experiment: Antibacterial activity against Pseudomonas putida MTCC 121 after 24 hrs. The settings on record: MTCC 121, 24 h.

For orientation: MIC means the smallest concentration in the dilution series that meets the test's criterion for growth inhibition. Low readings indicate a more susceptible organism, high ones a less susceptible organism.

Converted amounts (≈) assume the structure as drawn.

As for `Cc1ccc(-c2nnc3cc(C)nc(C)n23)cc1`, the zone of inhibition at 10 µg/mL in the experiment on Bacillus subtilis [1] was 12.3 mm; in experiment [4] it was 9.74 mm; with Escherichia coli [7] it was 11.7 mm; in the experiment on Pseudomonas putida [10], 26.7 mm. The zone of inhibition at 50 µg/mL with Bacillus subtilis [2] was 21.3 mm; in experiment [5], 19.7 mm; in the experiment on Escherichia coli [8], 22.2 mm; with Pseudomonas putida [11] it was 40.3 mm. For the same compound, the zone of inhibition at 100 µg/mL with Bacillus subtilis [3] worked out at 42.1 mm; in [6] it was 30.3 mm; in the experiment with Escherichia coli [9], 40.2 mm; in the experiment with Pseudomonas putida [12], 59.7 mm. For the same compound, the MIC against Bacillus subtilis [13] worked out at 16 µg/mL (≈ 67.1 µM); in experiment [14], 32 µg/mL (≈ 134 µM); with Escherichia coli [15] it was 16 µg/mL (≈ 67.1 µM); with Pseudomonas putida [16] it was 8 µg/mL (≈ 33.6 µM).
As to `COc1ccc(-c2nnc3cc(C)nc(C)n23)cc1`, the zone of inhibition at 10 µg/mL is 27.3 mm in the experiment with Bacillus subtilis [1], 12.3 mm in [4], 12.3 mm in the experiment on Escherichia coli [7] and 11.7 mm in the experiment on Pseudomonas putida [10]. The zone of inhibition at 50 µg/mL with Bacillus subtilis [2] came out at 39.7 mm; in experiment [5], 20.7 mm; in the experiment on Escherichia coli [8], 21.3 mm; with Pseudomonas putida [11], 20.3 mm. In addition, the zone of inhibition at 100 µg/mL amounted to 59.7 mm in the experiment on Bacillus subtilis [3], 41.3 mm in experiment [6], 40.7 mm in the experiment with Escherichia coli [9] and 40.7 mm in the experiment on Pseudomonas putida [12]. In addition, the MIC against Bacillus subtilis [13] turned out to be 8 µg/mL (≈ 31.5 µM); in experiment [14], 16 µg/mL (≈ 62.9 µM); against Escherichia coli [15] it was 16 µg/mL (≈ 62.9 µM); against Pseudomonas putida [16] it was 16 µg/mL (≈ 62.9 µM).
Consider `Cc1cc2nnc(-c3ccc(F)cc3)n2c(C)n1`, for which the zone of inhibition at 10 µg/mL in the experiment with Bacillus subtilis [1] is 13.7 mm; in experiment [4], 10.1 mm; with Escherichia coli [7], 11.3 mm; with Pseudomonas putida [10], 9.67 mm. In addition, the zone of inhibition at 50 µg/mL amounted to 22.3 mm in the experiment with Bacillus subtilis [2], 23.4 mm in [5], 14.3 mm with Escherichia coli [8] and 15.3 mm in the experiment with Pseudomonas putida [11]. The zone of inhibition at 100 µg/mL with Bacillus subtilis [3] is 41.7 mm; in experiment [6], 41.8 mm; in the experiment with Escherichia coli [9] it was 26.4 mm; in the experiment with Pseudomonas putida [12], 23.2 mm. For the same compound, the MIC with Bacillus subtilis [13] stood at 16 µg/mL (≈ 66 µM); in experiment [14], 16 µg/mL (≈ 66 µM); against Escherichia coli [15], 32 µg/mL (≈ 132 µM); against Pseudomonas putida [16], 32 µg/mL (≈ 132 µM).
